Test results reported in patent US4451575A, “Activators for Ziegler type polymerization catalysts using bis(trichloromethyl) sulfone” (Uniroyal, Inc., priority 1982, dated 1984).

Tests used:
eye = test: Eye irritation
Acute Oral LD50 = conditions: rat, in vivo
rabbit skin = test: Primary Skin Irritation

O=C(OCC1(Cl)OC(Cl)C(Cl)C1Cl)C1(Cl)OC(Cl)C(Cl)C1Cl (stereo not drawn) [ZXU, Tetrachlorotetrahydrofurfuryl Tetrachlorotetrahydrofuroate]
Ames Test, mutagenicity (Ames Test (mutagenicity)): negative
Eye irritation (eye; left in without washout): severe irritant
Eye irritation (eye; material washed out 4 seconds after introduction): Mild irritant
LD50 (Acute Oral LD50): 1100 ± 150 mg/kg
Primary Skin Irritation (rabbit skin): Moderate irritant

CCCCOC(=O)C1(Cl)OC(Cl)C(Cl)C1Cl (stereo not drawn) [UKU, Butyl 2,3,4,5-Tetrachloro-2,3,4,5, Tetrahydro-2-Furoate]
Ames Test, mutagenicity (Ames Test (mutagenicity)): negative
